According to patent US7183112B2, “Uses for anti-malarial therapeutic agents” (APT Pharmaceuticals, LLC, priority 1999, dated 2007):
Where “and” joins values, the source holds several entries; their conditions need not be identical. Equal entries are not always repeated. Entries after “also recorded” stand apart in the source; their conditions may differ.

Tested on: Ascaris-sensitized sheep
Test: Antigen-induced changes in specific lung resistance (early and late responses), Examples 1-2
Format: in vivo
Conditions: for Specific resistance, +5 HRS % / Specific resistance, +5 HRS Srl: 5 h post antigen; for Specific resistance, +7 HRS % / Specific resistance, +7 HRS Srl: 7 h post antigen; for Specific resistance, +7.5 HRS % / Specific resistance, +7.5 HRS Srl: 7.5 h post antigen; for Specific resistance, +8 HRS % / Specific resistance, +8 HRS Srl: 8 h post antigen; for Specific resistance, P-ASC % / Specific resistance, P-ASC Srl: immediately post Ascaris antigen; for Specific resistance, P-pl/dg % (immediate) / Specific resistance, P-pl/dg Srl (immediate): immediately post drug; for Specific resistance, P-pl/dg % (just before Ag) / Specific resistance, P-pl/dg Srl (just before Ag): post drug, just before antigen
Protocol: All procedures were approved by the Mount Sinai Medical Center Animal Research Committee, which is responsible for assuring the humane care and use of experimental animals.
Measurement of Airway Mechanics: The unsedated sheep were restrained in a cart in the prone position with their heads immobilized. After topical anesthesia of the nasal passages with 2% lidocaine solution, a balloon catheter was advanced through one nostril into the lower esophagus. The animals were […] with a cuffed endotracheal tube through the other nostril using a flexible fiberoptic bronchoscope as a guide. […] Pleural pressure was estimated with the esophageal balloon catheter (filled with one ml of air) which was positioned 5–10 cm from the gastroesophageal junction. […] Once the balloon was placed, it was secured so that it remained in position for the duration of the experiment. Lateral pressure in the trachea was-measured with a sidehole catheter (inner dimension, 2.5 mm) advanced through and positioned distal to the tip of the endotracheal tube. Transpulmonary pressure, the difference between tracheal and pleural pressure, was measured with a differential pressure transducer catheter system. For the measurement of pulmonary resistance (RL), the proximal end of the endotracheal tube was connected to a pneumotachograph (Fleisch No. 1; Dyna Sciences, Inc., Blue Bell, Pa.). […] The mean of at least five breaths, free of swallowing artifact, was used to obtain RL in cm H2O/L/s. Immediately after the measurement of RL, thoracic gas volume (Vtg) was measured in a constant-volume body plethysmograph to obtain specific lung resistance (SRL=RL×Vtg) in L×cm H2O/L/s.
Aerosol Delivery Systems: Aerosols of Ascaris suum extract (diluted 20:1 with phosphate buffered saline; 82,000 PNU/ml) were generated using a disposable medical nebulizer (Raindrop^R, Puritan Bennett), which produces an aerosol with a mass median aerodynamic diameter of 3.2 μm (geometric standard deviation, 1.9) as determined by a 7 stage Andersen cascade impactor. The output from the nebulizer was directed into a plastic T-piece, one end of which was connected to the inspiratory port of a Harvard respirator. […] The aerosol was delivered at a tidal volume of 500 ml and a rate of 20 breaths per minute for 20 minutes. Each sheep was challenged with an equivalent dose of antigen (400 breaths) in the control and drug trials. Carbachol aerosols were also generated with this same nebulizer system.
At 3 to 4 days before treatment was begun, baseline airway responsiveness, to aerosol carbachol (i.e., PC400) was determined and a baseline bronchial biopsy performed. […] The animals were treated two times a day for 3 days and then, on the fourth day, at 0.5 hours before antigen challenge and again at 4 hours after challenge. […] SRL was remeasured 0.5 h after treatment (just before challenge) and the animals were then challenged with antigen. SRL was then remeasured immediately after.
On the fourth day, they received an additional treatment one-half hour prior to antigen challenge.

[1] = Example 2, aerosol 40 mg b.i.d. (2 mg/kg/day), 4 h post antigen, individual sheep
[2] = Example 2, aerosol 40 mg b.i.d. (2 mg/kg/day), Mean of 2 sheep
[3] = Example 2, aerosol 40 mg b.i.d. (2 mg/kg/day), individual sheep
[4] = Example 2, aerosol 40 mg b.i.d. (2 mg/kg/day), 6 h post antigen, Mean of 2 sheep
[5] = Example 2, aerosol 40 mg b.i.d. (2 mg/kg/day), 6 h post antigen, individual sheep
[6] = Example 2, aerosol 40 mg b.i.d. (2 mg/kg/day), +6 HRS, individual sheep
[7] = inhaled (nebulized), summary of animal studies

CCN(CCO)CCCC(C)Nc1ccnc2cc(Cl)ccc12 (stereo not drawn) [HCQ, hydroxychloroquine]
Specific resistance, +4 HRS Srl (Example 2, aerosol 40 mg b.i.d. (2 mg/kg/day), 4 h post antigen, Mean of 2 sheep): 1.26 L×cm H2O/L/s | Specific resistance, +4 HRS % [1]: 10% and 28% | Specific resistance, +4 HRS Srl [1]: 1.12 L×cm H2O/L/s and 1.39 L×cm H2O/L/s | Specific resistance, +5 HRS % [2]: 17% | Specific resistance, +5 HRS Srl [2]: 1.23 L×cm H2O/L/s | Specific resistance, +5 HRS % [3]: 36% and −2% | Specific resistance, +5 HRS Srl [3]: 1.39 L×cm H2O/L/s and 1.07 L×cm H2O/L/s | Specific resistance, +6 HRS % [4]: 18% | Specific resistance, +6 HRS Srl [4]: 1.24 L×cm H2O/L/s | Specific resistance, +6 HRS % [5]: 20% and 16% | Specific resistance, +6 HRS Srl [5]: 1.22 L×cm H2O/L/s and 1.26 L×cm H2O/L/s | Specific resistance, +7 HRS % [2]: 16% | Specific resistance, +7 HRS Srl [2]: 1.23 L×cm H2O/L/s | Specific resistance, +7 HRS % [3]: 20% and 13% | Specific resistance, +7 HRS Srl [3]: 1.22 L×cm H2O/L/s and 1.23 L×cm H2O/L/s | Specific resistance, +7.5 HRS % [2]: 35% | Specific resistance, +7.5 HRS Srl [2]: 1.42 L×cm H2O/L/s | Specific resistance, +7.5 HRS % [3]: 50% and 19% | Specific resistance, +7.5 HRS Srl [3]: 1.53 L×cm H2O/L/s and 1.30 L×cm H2O/L/s | Specific resistance, +8 HRS % [2]: 20% | Specific resistance, +8 HRS Srl [2]: 1.27 L×cm H2O/L/s | Specific resistance, +8 HRS % [3]: 22% and 18% | Specific resistance, +8 HRS Srl [3]: 1.24 L×cm H2O/L/s and 1.29 L×cm H2O/L/s | Specific resistance, +6 HRS Srl (Example 2, aerosol 40 mg b.i.d. (2 mg/kg/day), +6 HRS, Mean of 2 sheep): 1.21 L×cm H2O/L/s | Specific resistance, +6 HRS % [6]: 8% and 21% | Specific resistance, +6 HRS Srl [6]: 1.10 L×cm H2O/L/s and 1.32 L×cm H2O/L/s | Specific resistance, P-ASC % [2]: 238% | Specific resistance, P-ASC Srl [2]: 3.58 L×cm H2O/L/s | Specific resistance, P-ASC % [3]: 196% and 280% | Specific resistance, P-ASC Srl [3]: 3.02 L×cm H2O/L/s and 4.14 L×cm H2O/L/s | Specific resistance, P-pl/dg % (immediate) [2]: 3% | Specific resistance, P-pl/dg Srl (immediate) [2]: 1.08 L×cm H2O/L/s | Specific resistance, P-pl/dg % (immediate) [3]: 13% and −7% | Specific resistance, P-pl/dg Srl (immediate) [3]: 1.15 L×cm H2O/L/s and 1.01 L×cm H2O/L/s | Specific resistance, P-pl/dg % (just before Ag) [2]: 1% | Specific resistance, P-pl/dg Srl (just before Ag) [2]: 1.07 L×cm H2O/L/s | Specific resistance, P-pl/dg % (just before Ag) [3]: −6% and 7%% | Specific resistance, P-pl/dg Srl (just before Ag) [3]: 0.96 L×cm H2O/L/s and 1.17 L×cm H2O/L/s | Specific resistance, +6 HRS % (Example 2, aerosol 40 mg b.i.d. (2 mg/kg/day), second +6 HRS column (text: at 6.5 hours), Mean of 2 sheep): 14% | irritant effects / tolerability of aerosolized HCQ (airway resistance after inhalation) (aerosol, sheep, specific resistance pre- and immediately following application): well tolerated; also recorded: does not cause any major irritant effects | effect on immediate allergic-mediated bronchostrictive responses [7]: partially blocks | effect on late-phase responses (four to 12 hours post-antigen challenge) [7]: virtually eliminates
